Results published in US20150164794A1, “METHOD FOR PREPARING AQUEOUS NANOPARTICLE SUSPENSIONS OF DERIVATIVES OF 4,9-DIHYDROXY-NAPHTHO[2,3-b]FURAN ALIPHATIC ACID ESTERS” (Zhoushan Haizhongzhou Xinsheng Pharmaceuticals, Co., Ltd., priority 2012, published 2015).
Read-outs that look alike come from different tables or passages of the source.

Experiment: Pharmacokinetic study of nanoparticle suspension NS-I-4 in ICR mice
Type: in vivo
Settings: for MRT last: read-out: MRT(0-t); for MRT inf: read-out: MRT(0-∞); for Vd: read-out: Vz
Protocol: Nanoparticle suspension NS-I-4, prepared according to the method as described in example 5, was administered intravenously into ICR mice at a dosage of 30 mg/kg. At different time points (5 min, 10 min, 30 min, 1 h, 2 h, 3 h, 4 h, 6 h) after the drug injection, blood samples were withdrawn from the dosed mice, and then were centrifuged at 6,000 rpm for 10 minutes at 4° C. The supernatant plasma samples were fetched and treated with 9 times volume of acetonitrile containing 0.5% trifluoromethane sulfonic acid. The treated plasmas were centrifuged at 12,000 rpm for 15 minutes at 4° C., and then the supernatants were fetched and analyzed with HPLC.
During treatment of blood samples before HPLC analysis, active drug 2-acetyl-4,9-dihydroxy-naphtho[2,3-b]furan and active metabolite 2-(1-hydroxyl)ethyl-4,9-dihydroxy-naphtho[2,3-b]furan are both oxidized into 2-acetyl-naphtho[2,3-b]furan-4,9-dione and 2-(1-hydroxyl)ethyl-naphtho[2,3-b]furan-4,9-dione, respectively (see scheme 1).
Scheme 1: Compound I is degraded by esterases into active drug, which is further metabolized into active metabolite. During pre-treatment for HPLC analysis, active drug and metabolite are oxidized by oxygen from air to oxidized drug and oxidized metabolite, respectively.
The Waters HPLC system used in this study includes: 1525 dual pump, 2998 photodiode array detector, 2707 auto sampler, Breeze 2 control and analysis software. The HPLC column used in this study: Phenomenex Luna C18, 250×4.60 mm 5 micron. The HPLC mobile phase: buffer A, 80% water, 20% acetonitrile; buffer B, 10% water, 70% acetonitrile, 20% tetrahydrofuran. The HPLC mobile phase gradient: 0-3 min, 50% buffer B to 50% buffer B, 3-10 min, 50% buffer B to 100% buffer B, 10-20 min, 100% buffer B to 100% buffer B, 20-22 min, 100% buffer B−50% buffer B, 22-25 min, 50% buffer B to 50% buffer B; flow rate, 1 ml/min.
Time courses of compound I, oxidized drug and oxidized active metabolite are illustrated in FIG. 2.

[1] = analyte in mouse plasma after NS-I-4 intravenously 30 mg/kg, ICR mice
[2] = iv, analyte in mouse plasma after NS-I-4 intravenously 30 mg/kg, ICR mice
[3] = iv, analyte in mouse plasma after NS-I-4 intravenously 30 mg/kg, ICR mice, read-out: AUC(0-t)
[4] = iv, analyte in mouse plasma after NS-I-4 intravenously 30 mg/kg, ICR mice, read-out: Cmax
[5] = iv, analyte in mouse plasma after NS-I-4 intravenously 30 mg/kg, ICR mice, read-out: Tmax

AUC(0-t) [1]	AUC(0-∞) [1]	CLz [1]	Cmax [1]	MRT(0-t) [1]	MRT(0-∞) [1]	Tmax [1]	Vz [1]	t1/2z [1]	AUC(0-inf) [2]	AUC(0-t) [3]	Cmax [4]	MRT last [2]	MRT inf [2]	Tmax [5]	Vd [2]	Compound	metabolic fate (administered intravenously into ICR mice)
3801 ng·h/mL	3999 ng·h/mL	250.07 mL/min/kg	1695 ng/mL	86.28 min	97.68 min	30 min	19.051 L/kg	52.8 min								CC(O)c1cc2c(o1)C(=O)c1ccccc1C2=O (stereo not shown) [2-(1-hydroxy)ethyl-naphtho[2,3-b]furan-4,9-dione]	
		1.97 mL/min/kg						23.8 min	255000 ng·h/mL	255000 ng·h/mL	288000 ng/mL	37.7 min	37.7 min	10 min	0.067 L/kg	CCCCCCCC(=O)Oc1c2ccccc2c(OC(=O)CCCCCCC)c2oc(C(C)=O)cc12 [Compound I, 2-acetyl-4,9-bis(octanoyloxy)-naphtho[2,3-b]furan]	degraded by esterases into active drug 2-acetyl-4,9-dihydroxy-naphtho[2,3-b]furan
		58.62 mL/min/kg						184.4 min	8530 ng·h/mL	7420 ng·h/mL	6130 ng/mL	74.9 min	147 min	10 min	15.6 L/kg	CC(=O)c1cc2c(o1)C(=O)c1ccccc1C2=O [2-acetyl-naphtho[2,3-b]furan-4,9-dione]	
